Measured values from patent publication US20060135432A1, “Agonists and antagonists of conadotropin-releasing hormone-2, and use thereof” (priority 2002, published 2006).
pEC50, pIC50: −log10 of the molar value. Where a SMILES comes first, the peptide text is derived from it. [ ]: non-standard residue; d: D form. dPhe(4-Cl) = N[C@H](Cc1ccc(Cl)cc1)C(=O)O; d2Nal = N[C@H](Cc1ccc2ccccc2c1)C(=O)O; dCit = NC(=O)NCCC[C@@H](N)C(=O)O; d3Pal = N[C@H](Cc1cccnc1)C(=O)O; pGlu = O=C1CC[C@@H](C(=O)O)N1

Tests used:
[1] = target: T1, rat GnRHR (Rattus norvegicus, UniProt P30969); assay: Inhibition of GnRH-1-induced IP production in GH3 cells expressing rat GnRHR; assay type: cell-based
T1 construct: expressed in transfected cells; host or cells: GH3 cells, retroviral infection
T1 sequence (P30969 1-327): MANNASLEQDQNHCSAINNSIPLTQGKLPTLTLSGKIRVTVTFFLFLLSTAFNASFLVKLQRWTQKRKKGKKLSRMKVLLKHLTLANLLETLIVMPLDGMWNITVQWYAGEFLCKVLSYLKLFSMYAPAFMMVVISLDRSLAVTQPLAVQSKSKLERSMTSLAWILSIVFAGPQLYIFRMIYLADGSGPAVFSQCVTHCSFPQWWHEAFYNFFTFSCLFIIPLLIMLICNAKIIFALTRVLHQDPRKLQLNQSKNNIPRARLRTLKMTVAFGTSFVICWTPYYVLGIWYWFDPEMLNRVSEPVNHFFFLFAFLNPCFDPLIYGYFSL
Method: (§1) GH3 cell lines were obtained from the Cell Line Bank at the Cancer Research Center, Seoul National University College of Medicine, located in Seoul, Republic of Korea. The GH3 cell lines were infected with retroviruses comprising genes encoding bfGnRHR-1, bfGnRHR-2, and bfGnRHR-3 which are bullfrog GnRH receptors, and rat GnRHR, and cell lines expressing each of these receptors were obtained. The GH3 cells expressing bfGnRHR-1, bfGnRHR-2, bfGnRHR-3, and rat GnRHR were cultured on 12-well plates. After 24 hours, the cells were cultured again for 24 hours in a media containing no inositol, to which H^3-myoinositol was added. The resultant cells were washed with buffer A (140 mM NaCl, 20 mM HEPES, 4 mM KCl, 8 mM D-Glucose, 1 mM MgCl2, 1 mM CaCl2, 1 mg/ml BSA) and then cultured in buffer A containing 10 mM LiCl at 37°C. for 30 minutes. Thereafter, they were treated with GnRH having a suitable concentration, cultured at 37° C. for another 30 minutes, and then the media was eliminated. The cells were treated with 10 mM of ice-cold formic acid to terminate the reaction, and the cell extracts were mixed with Dowex anionic exchange resins. These resins were washed with distilled water, IP was extracted with 1 M ammonium formate/0.1 M formic acid, and cpm (count per minute) was determined.
However, Trptorelix-1 could reduce the production of IP induced by 1 nM GnRH-2, in a concentration-dependent manner (FIG. 6a to FIG. 6c).

[2] = test system: bullfrog GnRH receptors; assay: Antagonist effect on IP production in GH3 cells expressing bullfrog GnRH receptors (bfGnRHR-2 and bfGnRHR-3 together); assay type: cell-based; settings: GH3 cells expressing bfGnRHR-2 and bfGnRHR-3, no GnRH-2
Description: In summary, it is concluded that Trptorelix is a very specific antagonist for GnRH-2. GH3 cell lines were obtained from the Cell Line Bank at the Cancer Research Center, Seoul National University College of Medicine, located in Seoul, Republic of Korea. The GH3 cell lines were infected with retroviruses comprising genes encoding […]-2, and bfGnRHR-3 which are bullfrog GnRH receptors, and rat GnRHR, and cell lines expressing each of these receptors were obtained. The GH3 cells expressing […]-3, and rat GnRHR were cultured on 12-well plates. After 24 hours, the cells were cultured again for 24 hours in a media containing no inositol, to which H^3-myoinositol was added. The resultant cells were washed with buffer A (140 mM NaCl, 20 mM HEPES, 4 mM KCl, 8 mM D-Glucose, 1 mM MgCl2, 1 mM CaCl2, 1 mg/ml BSA) and then cultured in buffer A containing 10 mM LiCl at 37°C. for 30 minutes. Thereafter, they were treated with GnRH having a suitable concentration, cultured at 37° C. for another 30 minutes, and then the media was eliminated. The cells were treated with 10 mM of ice-cold formic acid to terminate the reaction, and the cell extracts were mixed with Dowex anionic exchange resins. These resins were washed with distilled water, IP was extracted with 1 M ammonium formate/0.1 M formic acid, and cpm (count per minute) was determined.

[3] = test system: Primate GnRH-2 receptor; assay: Inhibition of GnRH-2-induced c-fos-luc luciferase activity in cells expressing Primate GnRH-2 receptor; assay type: cell-based; settings: treated at the same time as GnRH-2
Method: (§2) Complimentary DNA (cDNA) for a Primate GnRH-2 receptor was obtained from a CV-1 cell genome. […] Plasmids having Primate GnRH-2 receptors where transfected into CV-1 cells. To assay the activity of the receptor, c-fos-luc where a luciferase gene is fused with a c-fos promoter was co-transfected as a probe gene. After 48 hours from transfection, the cells were treated with GnRH-2 agonists and then the activity of luciferase was assayed (Seong et al., Endocrinology vol 144 2003, 454-466).
In the same manner as in 2-3 above, Primate GnRH-2 receptors were co-transfected along with c-fos-luc reporter genes, and after 48 hours, GnRH-2 and GnRH-2 antagonists were treated thereinto at the same time and then the effect of GnRH-2 antagonists was observed.

[4] = test system: TSU-Pri cells; assay: Binding of radiolabeled GnRH to TSU-Pri prostate cancer cells; parameters: species or system human; settings: room temperature, 6 hours
Method: TSU-Pri, which is one of the prostate cancer cell lines, was cultured along with the radiolabeled I^125GnRH-1 and I^125GnRH-2. […] The radiolabeled GnRH and the cells were cultured at room temperature for 6 hours, and then washed with PBS (phosphate-buffered saline) several times to eliminate the unbound GnRH. Thereafter, the cells were isolated and radioactivity from the cells was measured using a y-counter.

[5] = test system: bfGnRHR; assay: IP production in cells expressing bfGnRHR (bullfrog receptors taken together); assay type: cell-based
Method: as §1, with “determined. […]” for “determined.”

[6] = test system: male rat (Sprague Dawley); assay: Serum LH and testosterone after injection into male rat (radioimmunoassay); assay type: in vivo; settings: 10 μg injected
Method: Example 3: GnRH-2 Agonist-induced serum LH and testosterone levels [D-Ala^6]GnRH-2 was dissolved in saline at a concentration of 100 μg/ml, and then 10 μg of [D-Ala^6]GnRH-2 was injected into the cervix of a male rat (Sprague Dawley rat having a weight of approximately 100 g). 1, 2, 4, and 8 hours after the injection, serum was obtained from the rat. The concentration of luteinizing hormone and testosterone present in the serum was measured by radioimmunoassay.

[7] = test system: Primate GnRH-2 receptor; assay: c-fos-luc luciferase activation in CV-1 cells expressing Primate GnRH-2 receptor; assay type: cell-based
Method: as §2
Of the GnRH-2 receptors, [D-Ala^6]GnRH-2 performed excellently, showing effects about 3 times that of a wild-type ligand, GnRH-2. […] When analogs where the 5th, 7th, and 8th amino acids of [D-Ala^6]GnRH-2 are substituted were used, it was observed that their effects were weaker than [D-Ala^6]GnRH-2, and therefore it can be seen that it is important to maintain His, Trp, and Tyr that are found at the 5th, 7th, and 8th positions of GnRH-2 as they are (FIG. 3b).

[8] = test system: bfGnRHR-1; assay: Inositol phosphate (IP) production in GH3 cells expressing bfGnRHR-1; assay type: cell-based, bullfrog
Description: The GnRH receptor, a membrane protein connected with the G protein, activates the G protein when activated by a ligand, and the activated G protein activates phospholipase C and thereby the synthesis of inositol phosphate (IP), which is the second transmitter in cells, is increased. Based on this principle, the activity of a receptor can be investigated by measuring the amount of IP within cells. GH3 cell lines were obtained from the Cell Line Bank at the Cancer Research Center, Seoul National University College of Medicine, located in Seoul, Republic of Korea. The GH3 cell lines were infected with retroviruses comprising genes encoding […]-2, and bfGnRHR-3 which are bullfrog GnRH receptors, and rat GnRHR, and cell lines expressing each of these receptors were obtained. The GH3 cells expressing […]-3, and rat GnRHR were cultured on 12-well plates. After 24 hours, the cells were cultured again for 24 hours in a media containing no inositol, to which H^3-myoinositol was added. […] Thereafter, they were treated with GnRH having a suitable concentration, cultured at 37° C. for another 30 minutes, and then the media was eliminated. […] These resins were washed with distilled water, IP was extracted with 1 M ammonium formate/0.1 M formic acid, and cpm (count per minute) was determined. […]

[9] = target: T1, rat GnRHR; assay: Inositol phosphate (IP) production in GH3 cells expressing rat GnRHR; assay type: cell-based
Description: The GnRH receptor, a membrane protein connected with the G protein, activates the G protein when activated by a ligand, and the activated G protein activates phospholipase C and thereby the synthesis of inositol phosphate (IP), which is the second transmitter in cells, is increased. Based on this principle, the activity of a receptor can be investigated by measuring the amount of IP within cells. GH3 cell lines were obtained from the Cell Line Bank at the Cancer Research Center, Seoul National University College of Medicine, located in Seoul, Republic of Korea. The GH3 cell lines were infected with retroviruses comprising genes encoding […]-2, and bfGnRHR-3 which are bullfrog GnRH receptors, and rat GnRHR, and cell lines expressing each of these receptors were obtained. The GH3 cells expressing […]-3, and rat GnRHR were cultured on 12-well plates. After 24 hours, the cells were cultured again for 24 hours in a media containing no inositol, to which H^3-myoinositol was added. […] Thereafter, they were treated with GnRH having a suitable concentration, cultured at 37° C. for another 30 minutes, and then the media was eliminated. The cells were treated with 10 mM of ice-cold formic acid to terminate the reaction, and the cell extracts were mixed with Dowex anionic exchange resins. These resins were washed with distilled water, IP was extracted with 1 M ammonium formate/0.1 M formic acid, and cpm (count per minute) was determined. The GH3 cell lines were infected with retroviruses comprising genes encoding […]-2, and bfGnRHR-3 which are bullfrog GnRH receptors, and rat GnRHR, and cell lines expressing each of these receptors were obtained.

[10] = target: T1, rat GnRHR; assay: I125-GnRH-2 competitive ligand-receptor binding, membranes of GH3 cells expressing rat GnRHR; settings: competition with I125-GnRH-2, 4 °C, 16 hours; read-out: Binding affinity (log IC50 value) (converted)
Method: To determine the binding affinity between GnRH and GnRH receptors, GnRH-2 was radiolabeled with I^125. […] After 48 hours, the cells were homogenized to obtain cellular membranes, which were then dissolved in binding buffer (40 mM Tris, pH 7.4, 2 mM MgCl2). 20 μg of membrane proteins were reacted with I^125-GnRH-2 at 4° C. for 16 hours. […] After the reaction was completed, 1^125-GnRH-2 bound to the receptors was filtered using a Brandel harvester, and cpm was measured using a y-counter.

[11] = male rat about 100 g, 1, 2, 4, 8 hours

| SMILES | pIC50 [1] | fold lower effect than Cetrorelix ([1]; rat GnRH receptors) | IP production by the antagonist alone [2] | effect on luciferase activity induced by GnRH-2 [3] | effect of unradiolabeled competitor on binding of radiolabeled GnRH-2 to TSU-Pri cells [4] | fold higher sensitivity than GnRH-1 [5] | fold higher sensitivity than GnRH-2 [5] | time of testosterone peak point after injection ([6]; male rat) | serum luteinizing hormone (LH) [6, 11] | serum testosterone [6, 11] | effect, times that of wild-type ligand GnRH-2 [7] | concentration activating bfGnRHR-1, fold lower than GnRH-2 [8] | pEC50 ([9]; GH3 cells, 30 min, given as log EC50 (negative values)) | sensitivity compared with GnRH-1 ([9]; rat GnRHR) | IC50 [10] |
| --- | --- | --- | --- | --- | --- | --- | --- | --- | --- | --- | --- | --- | --- | --- | --- |
| CC(=O)N[C@H](Cc1ccc2ccccc2c1)C(=O)N[C@H](Cc1ccc(Cl)cc1)C(=O)N[C@H](Cc1cccnc1)C(=O)N[C@@H](CO)C(=O)N[C@@H](Cc1ccc(O)cc1)C(=O)N[C@H](CCCNC(N)=O)C(=O)N[C@@H](Cc1c[nH]c2ccccc12)C(=O)N[C@@H](Cc1ccc(O)cc1)C(=O)N1CCC[C@H]1C(=O)N[C@H](C)C(N)=O [Trptorelix-1, Ac-D2Nal-(4Cl)D-Phe-D-3Pal-Ser-Tyr-D-Cit-Trp-Tyr-Pro-DAlaNH2] (Ac-[d2Nal][dPhe(4-Cl)][d3Pal]SY[dCit]WYP[dA]-NH2) | 9.27 | ~60 fold | production of IP was not observed | reduced in a concentration-dependent manner | – | – | – | – | – | – | – | – | – | – | – |
| C[C@@H](NC(=O)[C@H](Cc1c[nH]cn1)NC(=O)[C@H](CO)NC(=O)[C@H](Cc1c[nH]c2ccccc12)NC(=O)[C@H](Cc1c[nH]cn1)NC(=O)[C@@H]1CCC(=O)N1)C(=O)N[C@@H](Cc1c[nH]c2ccccc12)C(=O)N[C@@H](Cc1ccc(O)cc1)C(=O)N1CCC[C@H]1C(=O)NCC(N)=O [[D-Ala^6]GnRH-2, p-Glu-His-Trp-Ser-His-D-Ala-Trp-Tyr-Pro-GlyNH2] ([pGlu]HWSH[dA]WYPG-NH2) | – | – | – | – | reduced in a concentration-dependent manner | 40-20,000 fold | 2.5-10 fold | 4 h | an increase of luteinizing hormone (LH) was observed in only one hour | began to rapidly increase from 2 hours after the injection | about 3 times | ~8 fold | 8.49 | a sensitivity lower than 10-fold | 141 nM |
